Measurements as given in patent EP0307553B1, “Modified splenopentines, their process of preparation and their use” (priority 1987, dated 1989).

What was measured:
[1] = Histopathological lung changes after infection, hamster; type: in vivo, syrischen Hamster; conditions: Hamster (TCID₅₀ = 2 x 10^3,5)
NMRI-Mäuse [2] = experiment: Antigen-specific IgM response against sheep erythrocytes in normal mice (Jerne plaque test, Fig. 1); type: in vivo; conditions: 3x at 24 h intervals, 0,5 mg/kg, independent of route of application
From the text: (§1) Der Einfluß von DAc-SP5 und immunsuppressiv wirkenden Verbindungen auf die Antigen-spezifische IgM-Antwort bei Mäusen wurde untersucht. Die erhaltenen Ergebnisse sind in den Fig.1 und 2 dargestellt.
Tiere: männliche NMRI-Mäuse (Koloniezucht) im Alter von 2-2,5 Monaten. Methodik des Jerne-Plaquetests entsprechend R. Eckert und G. Pasternak, Acta biol. med. germ. 31: 127-137 (1973), n= 16 (NaCl-Kontrolle), n= 8 (DAc-SP5-Versuche).

NMRI-Mäuse [3] = experiment: Chemically induced suppression of the humoral immune response (cyclophosphamide, dexamethasone; Fig. 2); type: in vivo
From the text: as §1
DAc-SP5 rekonstituiert bereits durch wenige aufeinanderfolgende Applikationen die chemisch induzierts Suppression der humoralen Immunantwort.

[4] = tested on: Monocyten bzw. Lymphocytensubpopulationen; experiment: Cytofluorimetric quantification of monocytes and lymphocyte subpopulations in a patient with secondary immunodeficiency; type: in vivo, Patientin; conditions: for DR^+-Monocyten (Gpt/l): before treatment 0,02, normal 0 -0,6; for CD 4 (Gpt/l): before treatment 0,03, normal 0,6 - 1,3; for CD 3 (Gpt/l): before treatment 0,04, normal 1,0 - 2,0; for Lymphocyten (Gpt/l): before treatment 0,28, normal 1,5 - 3,5; for CD 4/ CD 8: before treatment 0,58, normal 1,5 - 3,0; for DR^+-Monocyten (%): before treatment 16, normal 65 - 90
[5] = tested on: Knochenmark-stammzellen von C57 Bl-Mäusen; experiment: Colony formation test: mouse bone marrow stem cells co-cultured with human leukocytes in agar; type: cell-based; conditions: without DAc-SP5 = 100 %
[6] = Histopathological lung changes after infection, mouse; type: in vivo, Maus (Balb/c); conditions: Maus (TCID = 10^3,5)
männlichen Balb/c-Mäusen = experiment: Chronic alcohol intoxication: parameters of the immune system; type: in vivo, Mäuse; conditions: 5x daily before test, n=40
Coxsackievirus B4 = experiment: Histologically confirmed pancreatitis after Coxsackievirus infection; type: in vivo, Balb/c-Mäuse
[7] = tested on: HIV-infizierten Patienten; experiment: Therapy of HIV-infected patients
Milzzellen/Ratte = experiment: Radioligand binding study, rat spleen cells
[8] = therapy before infection: 0,5 mg/kg s.c. 3 x per week during 2 weeks before infection
[9] = therapy during infection: 0,5 mg/kg s.c. daily over 5 days from day of infection
[10] = 15 % Ethanol over 1,5 months + 0,1 mg DAc-SP5 i.p.
[11] = no Ethanol, 0,1 mg DAc-SP5 i.p.
[12] = HIV-infected patients (Tab. 6.1.)

(N^α-Acetyl-arginyl)(N^ε-acetyl-lysyl)glutamylvalyltyrosin [DAc-SP5]
Anzahl der Tiere mit histopathologischem Lungenbefund (%) [1, 8]: 100%
Anzahl der Tiere mit histopathologischem Lungenbefund (%) [1, 9]: 10%
Stärke und Kinetik der IgM-Antwort von Mäusen gegen Schafserythrocyten (NMRI-Mäuse [2]): keinen siknifikanten Einfluß
Suppression der Antigen-spezifischen IgM-Antwort nach Cyclophosphamid (NMRI-Mäuse [3]; Cyclophosphamid 7,2 mg/Tier i. p. once, DAc-SP5 0,5 mg/kg s. c. on the 4 following days): teilweise rekonstituiert
Reduktion der Antigen-spezifischen IgM-Antwort durch Dexamethason (NMRI-Mäuse [3]; Dexamethason 0,2 or 0,08 mg/Tier i. p., DAc-SP5 0,5 mg/kg s. c. on the two following days): vollständig rekonstituiert
DR^+-Monocyten (Gpt/l) ([4]; 2 weeks of therapy): 0,08 Gpt/l
CD 4 (Gpt/l) ([4]; 2 weeks of therapy): 0,29 Gpt/l
CD 3 (Gpt/l) ([4]; 2 weeks of therapy): 0,39 Gpt/l
Lymphocyten (Gpt/l) ([4]; 2 weeks of therapy): 0,84 Gpt/l
CD 4/ CD 8 ([4]; 2 weeks of therapy): 2,3
DR^+-Monocyten (%) ([4]; 2 weeks of therapy): 22%
DR^+-Monocyten (Gpt/l) ([4]; 3 weeks of therapy): 0,26 Gpt/l
CD 4 (Gpt/l) ([4]; 3 weeks of therapy): 0,34 Gpt/l
CD 3 (Gpt/l) ([4]; 3 weeks of therapy): 0,55 Gpt/l
Lymphocyten (Gpt/l) ([4]; 3 weeks of therapy): 0,74 Gpt/l
CD 4/ CD 8 ([4]; 3 weeks of therapy): 2,2
DR^+-Monocyten (%) ([4]; 3 weeks of therapy): 62%
DR^+-Monocyten (Gpt/l) ([4]; 4 weeks of therapy): 0,60 Gpt/l
CD 4 (Gpt/l) ([4]; 4 weeks of therapy): 0,38 Gpt/l
CD 3 (Gpt/l) ([4]; 4 weeks of therapy): 0,67 Gpt/l
Lymphocyten (Gpt/l) ([4]; 4 weeks of therapy): 0,83 Gpt/l
CD 4/ CD 8 ([4]; 4 weeks of therapy): 2,4
DR^+-Monocyten (%) ([4]; 4 weeks of therapy): 72%
Zell-"Kolonien" pro 10^5 Knochenmarkzellen, Prozentuale Angabe ([5]; leukocytes of Kontroll-personen, Exp. A, 1 µg DAc-SP5 per 1 ml agar): 99%
Zell-"Kolonien" pro 10^5 Knochenmarkzellen, Prozentuale Angabe ([5]; leukocytes of Kontroll-personen, Exp. A, 2 µg DAc-SP5 per 1 ml agar): 98%
Zell-"Kolonien" pro 10^5 Knochenmarkzellen, Prozentuale Angabe ([5]; leukocytes of Kontroll-personen, Exp. A, 10 µg DAc-SP5 per 1 ml agar): 114%
Zell-"Kolonien" pro 10^5 Knochenmarkzellen, Prozentuale Angabe ([5]; leukocytes of Kontroll-personen, Exp. A, 20 µg DAc-SP5 per 1 ml agar): 125%
Zell-"Kolonien" pro 10^5 Knochenmarkzellen, Prozentuale Angabe ([5]; leukocytes of Kontroll-personen, Exp. B, 1 µg DAc-SP5 per 1 ml agar): 135%
Zell-"Kolonien" pro 10^5 Knochenmarkzellen, Prozentuale Angabe ([5]; leukocytes of Kontroll-personen, Exp. B, 2 µg DAc-SP5 per 1 ml agar): 136%
Zell-"Kolonien" pro 10^5 Knochenmarkzellen, Prozentuale Angabe ([5]; leukocytes of Kontroll-personen, Exp. B, 10 µg DAc-SP5 per 1 ml agar): 147%
Zell-"Kolonien" pro 10^5 Knochenmarkzellen, Prozentuale Angabe ([5]; leukocytes of Kontroll-personen, Exp. B, 20 µg DAc-SP5 per 1 ml agar): 137%
Zell-"Kolonien" pro 10^5 Knochenmarkzellen, Prozentuale Angabe ([5]; leukocytes of Patienten (Systemischer Lupus Erythe-matodes), Exp. A, 1 µg DAc-SP5 per 1 ml agar): 180%
Zell-"Kolonien" pro 10^5 Knochenmarkzellen, Prozentuale Angabe ([5]; leukocytes of Patienten (Systemischer Lupus Erythe-matodes), Exp. A, 2 µg DAc-SP5 per 1 ml agar): 316%
Zell-"Kolonien" pro 10^5 Knochenmarkzellen, Prozentuale Angabe ([5]; leukocytes of Patienten (Systemischer Lupus Erythe-matodes), Exp. A, 10 µg DAc-SP5 per 1 ml agar): 270%
Zell-"Kolonien" pro 10^5 Knochenmarkzellen, Prozentuale Angabe ([5]; leukocytes of Patienten (Systemischer Lupus Erythe-matodes), Exp. A, 20 µg DAc-SP5 per 1 ml agar): 256%
Zell-"Kolonien" pro 10^5 Knochenmarkzellen, Prozentuale Angabe ([5]; leukocytes of Patienten (Systemischer Lupus Erythe-matodes), Exp. B, 2 µg DAc-SP5 per 1 ml agar): 873%
Zell-"Kolonien" pro 10^5 Knochenmarkzellen, Prozentuale Angabe ([5]; leukocytes of Patienten (Systemischer Lupus Erythe-matodes), Exp. B, 10 µg DAc-SP5 per 1 ml agar): 642%
Zell-"Kolonien" pro 10^5 Knochenmarkzellen, Prozentuale Angabe ([5]; leukocytes of Patienten (Systemischer Lupus Erythe-matodes), Exp. B, 20 µg DAc-SP5 per 1 ml agar): 438%
Anzahl der Tiere mit histopathologischem Lungenbefund (%) [6, 8]: 100%
Anzahl der Tiere mit histopathologischem Lungenbefund (%) [6, 9]: 0%
% phagocytierende Peritonealzellen (männlichen Balb/c-Mäusen; [10]): 47,5±1,7%
Milzmasse (mg) (männlichen Balb/c-Mäusen; [10]): 82,0±5,6 mg
Phagocytoseindex (männlichen Balb/c-Mäusen; [10]): 4,5±0,1
Plaque-bildende Zellen der Milz pro 10⁶ Zellen (Jerne-Plaquetest) (männlichen Balb/c-Mäusen; [10]): 214,3±5,9 pro 10⁶ Zellen
Thymusmasse (mg) (männlichen Balb/c-Mäusen; [10]): 29,0±2,2 mg
% phagocytierende Peritonealzellen (männlichen Balb/c-Mäusen; [11]): 75,0±2,6%
Milzmasse (mg) (männlichen Balb/c-Mäusen; [11]): 95,0±7,1 mg
Phagocytoseindex (männlichen Balb/c-Mäusen; [11]): 4,9±0,15
Plaque-bildende Zellen der Milz pro 10⁶ Zellen (Jerne-Plaquetest) (männlichen Balb/c-Mäusen; [11]): 285,0±11,3 pro 10⁶ Zellen
Thymusmasse (mg) (männlichen Balb/c-Mäusen; [11]): 40,0±3,0 mg
Tiere mit Pankreatitis (in %, n = 10-15) (Coxsackievirus B4; Infektionsdosis (TCID₅₀) 10³, therapy during infection: 0,5 mg/kg s.c. daily over 5 days from day of infection): 0%
Tiere mit Pankreatitis (in %, n = 10-15) (Coxsackievirus B4; Infektionsdosis (TCID₅₀) 10⁴, therapy before infection: 0,5 mg/kg s.c. 3 x per week during 2 weeks before infection): 80%
Tiere mit Pankreatitis (in %, n = 10-15) (Coxsackievirus B4; Infektionsdosis (TCID₅₀) 10⁴, therapy during infection: 0,5 mg/kg s.c. daily over 5 days from day of infection): 0%
Tiere mit Pankreatitis (in %, n = 10-15) (Coxsackievirus B4; Infektionsdosis (TCID₅₀) 10⁵, therapy before infection: 0,5 mg/kg s.c. 3 x per week during 2 weeks before infection): 100%
Tiere mit Pankreatitis (in %, n = 10-15) (Coxsackievirus B4; Infektionsdosis (TCID₅₀) 10⁵, therapy during infection: 0,5 mg/kg s.c. daily over 5 days from day of infection): 60%
Tiere mit Pankreatitis (in %, n = 10-15) (Coxsackievirus B4; Infektionsdosis (TCID₅₀) 10⁶, therapy before infection: 0,5 mg/kg s.c. 3 x per week during 2 weeks before infection): 100%
Tiere mit Pankreatitis (in %, n = 10-15) (Coxsackievirus B4; Infektionsdosis (TCID₅₀) 10⁶, therapy during infection: 0,5 mg/kg s.c. daily over 5 days from day of infection): 100%
CD4⁺/CD8⁺-Verhältnisses [7, 12]: Verbesserung
Gesamtlymphocytenzahl [7, 12]: Anhebung der Gesamtlymphocytenzahl in den Kontrollbereich
Nebenwirkungen ([7]; HIV-infected patients, after 16 weeks of therapy): keine Nebenwirkungen

³H-Splenopentin [³H-SP5]
Radioligand-Dissoziationskonstante (KD, M) (Milzzellen/Ratte): keine verdrängbare Bindung
